Experimental data reported in the NIST ThermoML archive (doi:10.1016/j.jct.2007.05.005).

Test: xn = mol fraction of the nth substance listed
Settings: 101.3 kPa, Liquid; for speed of sound: Sing-around technique in a fixed-path interferometer

CCOC(C)(C)C [2-ethoxy-2-methylpropane] + CC(C)CC(C)(C)C
Settings | mass density, 288.15 K [kg/m3] | mass density, 298.15 K [kg/m3] | mass density, 323.15 K [kg/m3] | speed of sound, 288.15 K [m/s] | speed of sound, 298.15 K [m/s] | speed of sound, 323.15 K [m/s]
x1 = 0.047 | 697.781 | 689.477 | 668.28 | 1121.2 | 1078.7 | 975.15
x1 = 0.1 | 699.904 | 691.5 | 670.054 | 1118.3 | 1075.5 | 971.5
x1 = 0.204 | 704.01 | 695.429 | 673.45 | 1111.9 | 1068.9 | 964.23
x1 = 0.305 | 708.284 | 699.51 | 677.1 | 1106.8 | 1063.8 | 958.38
x1 = 0.4 | 712.599 | 703.649 | 680.717 | 1101.7 | 1058.5 | 952.41
x1 = 0.508 | 717.689 | 708.525 | 685.059 | 1096.5 | 1053.1 | 946.33
x1 = 0.596 | 722.093 | 712.737 | 688.798 | 1092.5 | 1048.3 | 941.25
x1 = 0.699 | 727.55 | 717.974 | 693.436 | 1088.3 | 1043.8 | 935.64
x1 = 0.788 | 732.615 | 722.843 | 697.73 | 1084.9 | 1040.1 | 931
x1 = 0.902 | 739.579 | 729.56 | 703.808 | 1081.5 | 1036.6 | 927.2
x1 = 0.949 | 742.53 | 732.405 | 706.371 | 1080.5 | 1035.4 | 925.22
x1 = 1 | 745.656 | 735.357 | 709.007 | 1078.9 | 1033.2 | 922.48

CCOC(C)(C)C [2-ethoxy-2-methylpropane] + CCO
Settings | mass density, 288.15 K [kg/m3] | mass density, 298.15 K [kg/m3] | mass density, 323.15 K [kg/m3] | speed of sound, 288.15 K [m/s] | speed of sound, 298.15 K [m/s] | speed of sound, 323.15 K [m/s]
x1 = 0.049 | 790.26 | 781.555 | 759.223 | 1171.4 | 1135.6 | 1048.6
x1 = 0.097 | 786.997 | 778.154 | 755.418 | 1165.8 | 1128.9 | 1038.1
x1 = 0.198 | 780.646 | 771.547 | 748.104 | 1150.9 | 1112.5 | 1018.3
x1 = 0.303 | 774.648 | 765.324 | 741.204 | 1137.4 | 1097.5 | 999.82
x1 = 0.395 | 770.061 | 760.556 | 735.962 | 1127.4 | 1086.4 | 986.27
x1 = 0.504 | 765.017 | 755.325 | 730.194 | 1116.6 | 1074.6 | 971.7
x1 = 0.606 | 760.667 | 750.815 | 725.266 | 1108.4 | 1065.5 | 959.88
x1 = 0.691 | 757.429 | 747.458 | 721.666 | 1101.4 | 1058 | 950.98
x1 = 0.802 | 753.45 | 743.339 | 717.148 | 1094 | 1049.8 | 941.56
x1 = 0.895 | 749.87 | 739.659 | 713.326 | 1087.8 | 1043 | 933.37
x1 = 0.935 | 748.296 | 738.056 | 711.669 | 1084.8 | 1039.8 | 929.43
x1 = 1 | 745.656 | 735.357 | 709.007 | 1078.9 | 1033.2 | 922.48
